We go through one molecule from patent publication US11185516B2 (Laboratorios Silanes S.A. DE C.V., priority 2016, dated 2021).

The target of data set [1] is T1, GPBP (Homo sapiens, UniProt Q9Y5P4).
T1 sequence (Q9Y5P4 1-624): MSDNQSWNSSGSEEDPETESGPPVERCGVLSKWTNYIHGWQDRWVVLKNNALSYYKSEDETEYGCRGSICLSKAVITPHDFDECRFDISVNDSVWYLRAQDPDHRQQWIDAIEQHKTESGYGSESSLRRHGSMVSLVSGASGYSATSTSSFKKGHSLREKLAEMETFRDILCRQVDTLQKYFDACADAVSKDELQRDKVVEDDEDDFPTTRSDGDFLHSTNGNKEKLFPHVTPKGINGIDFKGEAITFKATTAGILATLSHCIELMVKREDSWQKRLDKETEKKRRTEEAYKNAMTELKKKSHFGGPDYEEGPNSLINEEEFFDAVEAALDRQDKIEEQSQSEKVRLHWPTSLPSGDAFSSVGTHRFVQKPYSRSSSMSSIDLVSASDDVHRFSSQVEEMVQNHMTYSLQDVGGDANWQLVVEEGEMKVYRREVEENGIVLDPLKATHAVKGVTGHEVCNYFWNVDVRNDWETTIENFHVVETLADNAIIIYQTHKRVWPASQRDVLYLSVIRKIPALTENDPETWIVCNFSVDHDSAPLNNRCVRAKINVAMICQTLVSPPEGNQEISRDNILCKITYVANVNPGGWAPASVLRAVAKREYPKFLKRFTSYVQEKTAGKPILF
Protocol: HeLa cells, cultured in DMEM, supplemented with 10% fetal bovine serum (FBS), and penicillin/streptomycin, were treated or not (control) with SLN1 or SLN2 1 mM for 24 h. After treatment, cells were washed with PBS, collected with a cell scrapper in PBS, and centrifuged (1850g×10 min, 4° C.). Subsequently, cell precipitates were dispersed in five volumes of hypotonic solution (10 mM HEPES, pH 7.9, 1.5 mM MgCl2, 10 mM KCl, 0.2 mM PMSF, 0.5 M DTT), centrifuged (1850×g, 5 min, 4° C.), and then dispersed again in 3 volumes of hypotonic solution and stored in ice for 10 min. Cells were then lysed with a Dounce homogenizer (18 pestle movements) and centrifuged (3300×g, 15 min, 4° C.). Supernatants (cytoplasmic fraction) were put into a concentrated solution (10×) of 30 mM HEPES, pH 7.9, 140 mM KCl, 0.3 mM MgCl2, and centrifuged for 1 h at 100,000×g. Supernatants were dialyzed against 50 volumes of dialysis solution (20 mM HEPES, pH 7.9, 20% glycerol, 100 mM KCl, 0.2 mM EDTA, 0.2 mM PMSF, 0.5 M DTT), cleared (25000×g, 20 min, 4° C.), and concentrated (Microcon 10K). Then, protein concentration was determined (Bio-Rad) and samples were stored at −80° C. Similar extract quantities were analyzed via gel filtration, using a Superdex 200 column, balanced with PBS (5 GE Healthcare), and a Hitachi HPLC device, collecting fractions of 500 μL. Equivalent fraction volumes were analyzed via Western blots with anti-GPBP N27-HRP antibodies.

A further data set concerns IRS2 knockout mice. The conditions noted are these: 100 mg/kg/day, 4 weeks. The source says: Insulin receptor substrate 2 (IRS2) is a cytoplasmic signaling molecule that mediates effects of insulin, insulin-like growth factor 1, and other cytokines by acting as a molecular adaptor between diverse receptor tyrosine kinases and downstream effectors. Mice lacking IRS2 (e.g., IRS2 knockout mice) have a diabetic phenotype and increased serum leptin levels. Leptin is a hormone made by adipose cells that regulates appetite and inhibits hunger.
The levels of fasting serum leptin, at the beginning and at the end of the treatments, were determined with a kit (Sigma) following the instructions by the manufacturer.

The subject of a further data set is insulin receptor (IRβ). The conditions noted are these: 10 mM, 3 h. The source says: Next, cells were washed with PBS and their membrane proteins were extracted.
For data set [2] the following is noted: 2:1 complex (2 molecules of metformin for 1 of glycine), aqueous solution.
For a further data set, the system named is HeLa cells. The conditions noted are these: 10 mM, 20 h. The protocol:
After the incubation, the cells were washed with PBS, collected and washed again, then fixed with methanol:acetone (50:50) for 16 h at −20° C., and stained with 10 μg/mL of propidium iodide, 0.01 mg/mL RNase, 0.01% sodium citrate, for 20 min at 37° C. in darkness. The stained cells were analyzed by flow cytometry using a BD FACS cell sorter and BD FACSuite™ software.

A further data set deals with wild type controls (WT). The conditions noted are these: 100 mg/kg/day, 8 weeks, fasting. The protocol:
At the 8-week treatment time point, there were 8 mice in each of the WT groups, 6 mice in the KO IRS2 untreated control group, 7 mice in the KO IRS2 SLN1 treated group, and 8 mice in the KO SLN2 treated group. Blood was collected at the time of sacrifice and used to measure TG under fasting conditions. […] Statistical differences between the experimental groups shown in FIG. 21 were assessed by Student's T test. P value of <0.05 is indicated by *.

The target of data set [3] is GPBP (Homo sapiens, UniProt Q9Y5P4). The conditions noted are these: 1 mM, FIG. 6A.
Protocol: The reaction mixtures (25 μl) were incubated at 30° C. with shaking (350 rpm) for 15 min, and then analyzed by SDS PAGE. The proteins were electrotransferred to a PVDF membrane (Immobilon P, Millipore). The membranes were subjected to autoradiography (^32P), and then detection with anti-FLAG antibodies (ECL Prime, GE Healthcare, WB anti-FLAG).
Data set [4] deals with GPBP (Mus musculus, UniProt Q9EQG9). The conditions noted are these: 10 mM, 3 h, FIG. 6B. The protocol:
The cells were lysed in a lyse buffer ([…], […], 1% Triton X-100, 1 μM phenylmethylsulphonylfluoride (PMSF) and 10 μg/mL leupeptin) for 30 min at 4° C. Lysates were centrifuged at 16000×g for 5 min at 4° C. and the total protein concentration of the supernatants determined with the Bradford reagent (Bio-Rad). The samples were analyzed by Western blot using the anti-GPBP mAb-N27 and detected with chemoluminiscence (ECL Prime, GE Healthcare).

A further data set relates to IRS2−/− (KO) mice. Briefly: Fasting glycemia and insulinemia in female IRS2−/− mice. The data set is classed as in vivo, mouse. The conditions noted are these: 4 weeks. From the text:
Insulin resistance characterizes type 2 diabetes, obesity, and the metabolic syndrome. Thus, insulin sensitivity is a major therapeutic objective for these metabolic diseases. Insulin receptor substrate (IRS) proteins regulate the physiological actions of insulin upon binding to the receptor. Specific deletion of IRS2 in mice produces diabetes due to a developmental reduction of the pancreatic β-cell mass and the inability of existing β-cells to expand in response to peripheral insulin resistance. Additionally, IRS2-deficiency in mice causes hepatic insulin resistance concurrent with failed suppression of hepatic glucose production. While male IRS2−/− mice often die of diabetic complications by 12 weeks of age, females IRS2−/− mice develop a milder form of diabetes and many live up to 6 months. The observation that female IRS2−/− mice eat more than controls led to the discovery that this molecule is critical for hypothalamic regulation of food intake.
The mean glycemic values are represented per group (n=3) pre-treatment (black bars) and post-treatment (gray bars) along with their standard deviations. […] The fasting serum insulin levels taken pre-treatment (black bars) and post-treatment (gray bars) were determined using a kit (Millipore), following the manufacturer's instructions. Mean values and standard deviations are presented for each group (n=3) (FIG. 12D).
Due to peripheral resistance to insulin, the IRS2−/− mice also develop hyperinsulinemia.

For another data set, the system named is AS160. Description: In vitro AS160 phosphorylation in the presence of GPBP, AMPK and AKT. The data set is classed as biochemical. The conditions noted are these: 5 mM, with FLAG-GPBP, AKT, AMPK. The protocol:
The reactions (25 μL) were carried out at 30° C., and stirred (350 rpm) for 15 min. Then, they were stopped with a reducing loading buffer, heated (95° C., 2 min), and analyzed using electrophoresis, electrotransfer, and autoradiography.

Sequence of GPBP (Mus musculus, UniProt Q9EQG9) (Q9EQG9 whole entry): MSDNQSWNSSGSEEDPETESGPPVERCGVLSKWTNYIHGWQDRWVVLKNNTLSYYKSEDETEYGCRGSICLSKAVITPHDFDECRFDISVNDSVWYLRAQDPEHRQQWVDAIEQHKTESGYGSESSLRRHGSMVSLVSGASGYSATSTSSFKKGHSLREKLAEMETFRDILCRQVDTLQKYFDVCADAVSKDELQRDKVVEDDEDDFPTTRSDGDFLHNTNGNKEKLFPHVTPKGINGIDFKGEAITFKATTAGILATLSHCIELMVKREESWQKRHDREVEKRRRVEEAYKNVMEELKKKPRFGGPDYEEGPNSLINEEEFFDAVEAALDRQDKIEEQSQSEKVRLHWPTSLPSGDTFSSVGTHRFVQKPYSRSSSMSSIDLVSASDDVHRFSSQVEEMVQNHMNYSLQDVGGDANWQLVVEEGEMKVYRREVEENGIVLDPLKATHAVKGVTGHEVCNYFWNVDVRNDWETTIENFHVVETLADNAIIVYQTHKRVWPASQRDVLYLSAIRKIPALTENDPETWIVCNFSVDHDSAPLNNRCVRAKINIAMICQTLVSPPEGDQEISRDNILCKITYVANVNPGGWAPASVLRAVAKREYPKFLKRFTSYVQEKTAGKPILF
Protocol for type 2 diabetes patients: The aim of this study was to determine the effect of DMMET-01 on insulin sensitivity by Glucose CLAMP technique in Mexican type 2 diabetes patients, after 2 months of treatment.
Primary Outcome Measures: Insulin sensitivity.
Secondary Outcome Measures: Insulin, fasting glucose, HbA1c, Adverse Events, Creatinine, Total Cholesterol, HDL, Triglycerides, Uric acid, AST, ALT, FA, and DHL.
60 days: 30 days, dose of 1050.6 mg per day (before dinner) and 30 days, dose 1050.6 mg twice a day 30 more days (before breakfast before dinner).
60 days: 30 days placebo once a day (before dinner)+30 days twice a day (before breakfast and before dinner).

Consider `CN(C)C(=N)NC(=N)N` [Metformin glycinate, N,N-dimethylimidodicarbonimidic diamide glycinate], for which, at GPBP [1] (1 mM, 24 h), the “high molecular weight GPBP aggregates” value was “high molecular weight aggregates formed”. Further, the GPBP-LKB1 aggregates result at GPBP [1] (FIG. 14) was “dissociates GPBP-LKB1 aggregates”. Also, the “Tmax, comparative analysis” value (620 mg BID vs metformin hydrochloride 1000 mg BID) is listed as “statistically significant differences”. Moreover, the “bioequivalence (90% C.I. in magnitude and velocity)” value (620 mg against metformin hydrochloride 500 mg) is “within the theoretical ranges of bioequivalence”. Moreover, the “pharmacokinetic parameters of test vs reference (metformin hydrochloride)” value (Stage B, multiple doses) is on record as “similar”. Further, the “reduction of fasting serum leptin levels compared to metformin hydrochloride” value in the data set with IRS2 knockout mice was “greater reduction of fasting serum leptin levels”. In the data set with IRS2 knockout mice (end vs beginning of treatment), the “fasting serum leptin levels” value is recorded as “reduced fasting serum leptin levels”. Moreover, in the data set with insulin receptor (IRβ), the “accumulation of IRβ on the cell membrane vs metformin hydrochloride” value is given as “significantly more accumulation”. In data set [2], this molecule showed a complexation constant of 712±19. Besides, in the data set on HeLa cells, the “cancer cells entering G1 phase cell cycle arrest” value was “about 56%”. The “serum triglycerides compared to untreated or SLN1-treated control mice” value in the data set with wild type controls (WT) is “lower”. On GPBP [3], the GPBP auto-phosphorylation activity result is “inhibition of GPBP auto-phosphorylation activity”. Besides, at GPBP [4], the “GPBP dephosphorylation vs untreated or metformin treated cells” value was “more GPBP dephosphorylation”. Moreover, the fasting glycemia post-treatment entry in the data set on IRS2−/− (KO) mice (100 mg/kg/day with food, 10-12 weeks old) is reported as “significantly lower than those pre-treatments”. Also, the fasting insulin levels entry in the data set on IRS2−/− (KO) mice (100 mg/kg/day) is reported as “lowered the fasting insulin levels”. Further, in the data set on AS160, the “phosphorylation of AS160” value is reported as “increased”. Moreover, in the data set with type 2 diabetes patients (1050.6 mg per day 30 days, then 1050.6 mg twice a day 30 days, p=0.008), the “A1c level after two months treatment” value worked out at 7.1±1.0%. For the same molecule, in the data set with type 2 diabetes patients (DMMET01 group, baseline), the “A1c level before treatment” value is reported as 8.1±0.8%. In addition, in the data set on type 2 diabetes patients (after two months treatment), the “reduction of the A1c level” value is on record as “more than 1%” and the “sensitivity to insulin (Glucose CLAMP)” value is recorded as “did not change”. The “adverse events vs placebo” value in the data set with type 2 diabetes patients (two months treatment) is “No statistically significant difference in adverse events”.
